Test results published in PubChem BioAssay (NCI).
Values joined by “and” are separate entries in the source; they are usually repeats but may differ in a detail not shown here. Identical values can stand only once.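 Here, GI50 denotes the concentration required for 50% inhibition of growth. TGI: concentration producing complete growth inhibition.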

How the values were obtained:
Assay in all cases: inhibition of tumour cell growth, NCI panel, 384-well format
UACC-62 melanoma = test system: UACC-62 melanoma
MDA-MB-231 breast = test system: MDA-MB-231 breast
UO-31 renal = test system: UO-31 renal
NCI-H322M lung = test system: NCI-H322M lung
UACC-257 melanoma = test system: UACC-257 melanoma
ACHN renal = test system: ACHN renal
BT-549 breast = test system: BT-549 breast
TK-10 renal = test system: TK-10 renal
MALME-3M melanoma = test system: MALME-3M melanoma
MCF7 breast = test system: MCF7 breast
LOX IMVI melanoma = test system: LOX IMVI melanoma
KM12 colon = test system: KM12 colon
NCI/ADR-RES ovarian = test system: NCI/ADR-RES ovarian
K-562 leukemia = test system: K-562 leukemia
EKVX NSCLC = test system: EKVX NSCLC
MDA-MB-468 breast = test system: MDA-MB-468 breast
OVCAR-8 ovarian = test system: OVCAR-8 ovarian
T-47D breast = test system: T-47D breast
MOLT-4 leukemia = test system: MOLT-4 leukemia
HT29 colon = test system: HT29 colon
SK-MEL-5 melanoma = test system: SK-MEL-5 melanoma
CAKI-1 renal = test system: CAKI-1 renal
SN12C renal = test system: SN12C renal
RPMI-8226 leukemia = test system: RPMI-8226 leukemia
HCC-2998 colon = test system: HCC-2998 colon
HCT-15 colon = test system: HCT-15 colon
CCRF-CEM leukemia = test system: CCRF-CEM leukemia
SNB-19 CNS = test system: SNB-19 CNS
SF-295 CNS = test system: SF-295 CNS
NCI-H23 lung = test system: NCI-H23 lung
A498 renal = test system: A498 renal
OVCAR-4 ovarian = test system: OVCAR-4 ovarian
HCT-116 colon = test system: HCT-116 colon
NCI-H226 lung = test system: NCI-H226 lung
NCI-H460 NSCLC = test system: NCI-H460 NSCLC
SF-268 CNS = test system: SF-268 CNS
OVCAR-3 ovarian = test system: OVCAR-3 ovarian
OVCAR-5 ovarian = test system: OVCAR-5 ovarian
SK-OV-3 ovarian = test system: SK-OV-3 ovarian
786-0 renal = test system: 786-0 renal
SK-MEL-28 melanoma = test system: SK-MEL-28 melanoma
COLO 205 colon = test system: COLO 205 colon
HS 578T breast = test system: HS 578T breast
PC-3 prostate = test system: PC-3 prostate
HOP-92 NSCLC = test system: HOP-92 NSCLC
SF-539 CNS = test system: SF-539 CNS
DU-145 prostate = test system: DU-145 prostate
HOP-62 NSCLC = test system: HOP-62 NSCLC
NCI-H522 lung = test system: NCI-H522 lung
SW-620 colon = test system: SW-620 colon
U251 glioblastoma = test system: U251 glioblastoma
A549 NSCLC = test system: A549 NSCLC
M14 melanoma = test system: M14 melanoma
MDA-MB-435 melanoma = test system: MDA-MB-435 melanoma
HL-60(TB) leukemia = test system: HL-60(TB) leukemia
IGROV1 ovarian = test system: IGROV1 ovarian
RXF 393 renal = test system: RXF 393 renal
SNB-75 CNS = test system: SNB-75 CNS

## CNC(=O)c1ccc(Nc2ncc(C(F)(F)F)c(NCc3nccnc3N(C)S(C)(=O)=O)n2)cc1
UACC-62 melanoma
  GI50: 1190 nM and 1400 nM
  TGI: 2490 nM and 2810 nM
MDA-MB-231 breast
  GI50: 2380 nM and 3040 nM
  TGI: 11700 nM and 14600 nM
UO-31 renal
  GI50: 1820 nM and 1980 nM
  TGI: 4840 nM and 4750 nM
NCI-H322M lung
  GI50: 2040 nM and 2200 nM
  TGI: 5320 nM and 6000 nM
UACC-257 melanoma
  GI50: 2060 nM and 2930 nM
  TGI: 5320 nM and 8360 nM
ACHN renal
  GI50: 1910 nM and 2090 nM
  TGI: 9330 nM and 9550 nM
BT-549 breast
  GI50: 1580 nM and 1990 nM
  TGI: 3400 nM and 4080 nM
TK-10 renal
  GI50: 1770 nM and 2240 nM
  TGI: 5220 nM and 6820 nM
MALME-3M melanoma
  GI50: 2120 nM and 2650 nM
  TGI: 4880 nM and 6180 nM
MCF7 breast
  GI50: 2210 nM and 1900 nM
  TGI: 7680 nM and 5850 nM
LOX IMVI melanoma
  GI50: 1530 nM and 1650 nM
  TGI: 3340 nM and 3520 nM
KM12 colon
  GI50: 250 nM and 239 nM
  TGI: 2360 nM and 2860 nM
NCI/ADR-RES ovarian
  GI50: 13500 nM and 16000 nM
  TGI: 40500 nM and 35500 nM
K-562 leukemia
  GI50: 3450 nM and 3440 nM
  TGI: 16800 nM
EKVX NSCLC
  GI50: 1580 nM and 1890 nM
  TGI: 4560 nM and 5270 nM
MDA-MB-468 breast
  GI50: 1350 nM and 1790 nM
  TGI: 2950 nM and 3710 nM
OVCAR-8 ovarian
  GI50: 2730 nM and 3010 nM
  TGI: 7710 nM and 8760 nM
T-47D breast
  GI50: 2500 nM and 2670 nM
  TGI: 6900 nM and 7180 nM
MOLT-4 leukemia
  GI50: 1950 nM and 2160 nM
  TGI: 3580 nM and 3840 nM
HT29 colon
  GI50: 2110 nM and 2250 nM
  TGI: 5190 nM and 5710 nM
SK-MEL-5 melanoma
  GI50: 1340 nM and 1250 nM
  TGI: 2690 nM and 2640 nM
CAKI-1 renal
  GI50: 1300 nM and 1480 nM
  TGI: 4510 nM and 4900 nM
SN12C renal
  GI50: 1940 nM and 2360 nM
  TGI: 4120 nM and 4970 nM
RPMI-8226 leukemia
  GI50: 1810 nM and 2260 nM
  TGI: 3210 nM and 3750 nM
HCC-2998 colon
  GI50: 1500 nM and 1740 nM
  TGI: 4340 nM and 4680 nM
HCT-15 colon
  GI50: 1840 nM and 2790 nM
  TGI: 5700 nM and 8920 nM
CCRF-CEM leukemia
  GI50: 1710 nM and 2100 nM
  TGI: 3280 nM and 3730 nM
SNB-19 CNS
  GI50: 3050 nM and 3920 nM
  TGI: 13300 nM and 12400 nM
SF-295 CNS
  GI50: 2720 nM and 2750 nM
  TGI: 9230 nM and 8160 nM
NCI-H23 lung
  GI50: 1590 nM and 1740 nM
  TGI: 3170 nM and 3430 nM
A498 renal
  GI50: 1080 nM and 1350 nM
  TGI: 4630 nM and 5830 nM
OVCAR-4 ovarian
  GI50: 2310 nM and 3190 nM
  TGI: 10200 nM and 14100 nM
HCT-116 colon
  GI50: 1750 nM and 1940 nM
  TGI: 6220 nM and 4860 nM
NCI-H226 lung
  GI50: 2050 nM
  TGI: 11900 nM and 7960 nM
NCI-H460 NSCLC
  GI50: 1470 nM and 1670 nM
  TGI: 3130 nM and 3370 nM
SF-268 CNS
  GI50: 1030 nM and 681 nM
  TGI: 2350 nM and 2260 nM
OVCAR-3 ovarian
  GI50: 1420 nM and 1980 nM
  TGI: 3940 nM and 4840 nM
OVCAR-5 ovarian
  GI50: 2140 nM and 2410 nM
  TGI: 6770 nM and 7250 nM
SK-OV-3 ovarian
  GI50: 1310 nM and 1770 nM
  TGI: 5300 nM and 9750 nM
786-0 renal
  GI50: 2400 nM and 2390 nM
  TGI: 10800 nM and 8970 nM
SK-MEL-28 melanoma
  GI50: 1780 nM and 2340 nM
  TGI: 3650 nM and 4720 nM
COLO 205 colon
  GI50: 2030 nM and 2410 nM
  TGI: 5340 nM and 5980 nM
HS 578T breast
  GI50: 1300 nM and 449 nM
  TGI: 3100 nM and 2420 nM
PC-3 prostate
  GI50: 2110 nM and 3350 nM
  TGI: 6150 nM and 10700 nM
HOP-92 NSCLC
  GI50: 2210 nM and 2540 nM
  TGI: 6440 nM and 6500 nM
SF-539 CNS
  GI50: 1550 nM and 1950 nM
  TGI: 3290 nM and 3850 nM
DU-145 prostate
  GI50: 1710 nM and 2200 nM
  TGI: 10700 nM and 11100 nM
HOP-62 NSCLC
  GI50: 2040 nM and 2110 nM
  TGI: 6310 nM and 7250 nM
NCI-H522 lung
  GI50: 1940 nM and 2470 nM
  TGI: 3630 nM and 4420 nM
SW-620 colon
  GI50: 2020 nM and 2460 nM
  TGI: 4390 nM and 5130 nM
U251 glioblastoma
  GI50: 2170 nM and 2960 nM
  TGI: 7560 nM and 10200 nM
A549 NSCLC
  GI50: 2350 nM and 2240 nM
  TGI: 6470 nM and 6060 nM
M14 melanoma
  GI50: 1290 nM and 1530 nM
  TGI: 3780 nM and 4150 nM
MDA-MB-435 melanoma
  GI50: 2880 nM and 4550 nM
  TGI: 11800 nM and 14400 nM
HL-60(TB) leukemia
  GI50: 1610 nM and 2020 nM
  TGI: 2970 nM and 3470 nM
IGROV1 ovarian
  GI50: 558 nM and 673 nM
  TGI: 5910 nM and 8380 nM
RXF 393 renal
  GI50: 1150 nM and 1170 nM
  TGI: 2710 nM and 2730 nM
SNB-75 CNS
  GI50: 1280 nM and 1780 nM
  TGI: 3690 nM and 4750 nM
